In patent publication US20020072530A1, “Indole and benzimidazole inhibitors of factor Xa” (priority 2000, published 2002):
pIC50: −log10 of the molar value. Where two headings read alike, the source gives them in different places.

Columns and labels:
Type in all cases: biochemical
[1] = target: factor Xa (Homo sapiens, UniProt P00742); assay: Factor Xa amidolytic assay (chromogenic substrate S-2765)
Description: (§1) The compounds of the present invention are dissolved in buffer to give solutions containing concentrations such that assay concentrations range from about 0 to about 100 μM. In the assays for thrombin, prothrombinase and factor Xa, a synthetic chromogenic substrate is added to a solution containing test compound and the enzyme of interest and the residual catalytic activity of that enzyme is determined spectrophotometrically. The IC50 of a compound is determined from the substrate turnover. The IC50 is the concentration of test compound giving about 50% inhibition of the substrate turnover.
(§2) The factor Xa and thrombin assays were performed at room temperature, in 0.02 M Tris-HCl buffer, pH 7.5, containing 0.15 M NaCl. The rates of hydrolysis of the para-nitroanilide substrate S-2765 (Chromogenix) for factor Xa, and the substrate Chromozym TH (Boehringer Mannheim) for thrombin following preincubation of the enzyme with inhibitor for 5 minutes at room temperature, and were determined using the Softmax 96-well plate reader (Molecular Devices), monitored at 405 nm to measure the time dependent appearance of p-nitroaniline.

[2] = target: thrombin (Homo sapiens, UniProt P00734); assay: Thrombin amidolytic assay (chromogenic substrate Chromozym TH)
Description: as §1, §2

[3] = target: prothrombinase complex (Homo sapiens, UniProt P00742); assay: Prothrombinase inhibition assay in a plasma free system; conditions: table of Examples 6-18; unit inferred; read-out: IIASE (IC50)
Description: as §1
The prothrombinase inhibition assay was performed in a plasma free system with modifications to the method described by Sinha, U. et al., Thromb. Res., 75, 427-436 (1994). Specifically, the activity of the prothrombinase complex was determined by measuring the time course of thrombin generation using the p-nitroanilide substrate Chromozym TH. The assay consists of preincubation (5 minutes) of selected compounds to be tested as inhibitors with the complex formed from factor Xa (0.5 nM), factor Va (2 nM), phosphatidyl serine:phosphatidyl choline (25:75, 20 μM) in 20 mM Tris-HCl buffer, pH 7.5, containing 0.15 M NaCl, 5 mM CaCl2 and 0.1% bovine serum albumin. Aliquots from the complex-inhibitor mixture were added to prothrombin (1 nM) and Chromozym TH (0.1 mM). The rate of substrate cleavage was monitored at 405 nm for two minutes. Eight different concentrations of inhibitor were assayed in duplicate. A standard curve of thrombin generation by an equivalent amount of untreated complex was used for determination of percent inhibition.

[4] = Table 5, read-out: Inhibitory Activity (IC50) Factor Xa
[5] = table of Examples 6-18, unit inferred, read-out: XA (IC50)
[6] = Table 5, read-out: Inhibitory Activity (IC50) Thrombin
[7] = table of Examples 6-18, unit inferred, read-out: IIA (IC50)

prothrombinase complex, sequence (P00742 235-488 limits assumed): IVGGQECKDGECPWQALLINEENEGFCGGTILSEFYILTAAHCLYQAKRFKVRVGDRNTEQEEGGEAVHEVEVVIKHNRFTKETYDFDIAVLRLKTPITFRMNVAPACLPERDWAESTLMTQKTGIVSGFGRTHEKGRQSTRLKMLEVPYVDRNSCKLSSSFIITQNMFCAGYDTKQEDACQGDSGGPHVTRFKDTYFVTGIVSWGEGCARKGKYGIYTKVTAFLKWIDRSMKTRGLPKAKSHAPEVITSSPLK
prothrombinase complex, sequence (P00742 41-179 limits assumed): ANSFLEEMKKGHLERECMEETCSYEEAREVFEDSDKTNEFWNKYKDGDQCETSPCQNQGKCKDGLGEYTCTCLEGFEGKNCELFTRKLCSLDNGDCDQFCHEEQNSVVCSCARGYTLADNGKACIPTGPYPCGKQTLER
prothrombinase complex, sequence (P12259 29-737 partner limits assumed): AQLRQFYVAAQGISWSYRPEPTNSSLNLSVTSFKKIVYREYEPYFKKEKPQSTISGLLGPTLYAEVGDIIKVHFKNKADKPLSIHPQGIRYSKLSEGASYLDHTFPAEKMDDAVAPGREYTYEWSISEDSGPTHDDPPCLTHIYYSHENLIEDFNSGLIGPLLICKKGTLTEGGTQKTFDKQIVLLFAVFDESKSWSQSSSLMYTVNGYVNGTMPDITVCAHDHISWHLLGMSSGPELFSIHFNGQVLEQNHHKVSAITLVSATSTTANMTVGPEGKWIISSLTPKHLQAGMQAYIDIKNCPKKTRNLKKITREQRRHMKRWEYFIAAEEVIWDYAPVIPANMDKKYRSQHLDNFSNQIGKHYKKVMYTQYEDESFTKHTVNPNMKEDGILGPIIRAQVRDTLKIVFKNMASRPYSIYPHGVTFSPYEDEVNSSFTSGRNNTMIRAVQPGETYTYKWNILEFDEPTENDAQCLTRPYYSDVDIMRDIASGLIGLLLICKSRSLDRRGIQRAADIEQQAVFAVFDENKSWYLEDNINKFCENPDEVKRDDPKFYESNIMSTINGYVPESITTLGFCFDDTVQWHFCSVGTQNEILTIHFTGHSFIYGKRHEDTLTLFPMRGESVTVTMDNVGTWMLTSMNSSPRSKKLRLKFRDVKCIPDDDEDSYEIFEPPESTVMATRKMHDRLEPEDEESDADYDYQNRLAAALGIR
prothrombinase complex, sequence (P12259 1574-2224 partner limits assumed): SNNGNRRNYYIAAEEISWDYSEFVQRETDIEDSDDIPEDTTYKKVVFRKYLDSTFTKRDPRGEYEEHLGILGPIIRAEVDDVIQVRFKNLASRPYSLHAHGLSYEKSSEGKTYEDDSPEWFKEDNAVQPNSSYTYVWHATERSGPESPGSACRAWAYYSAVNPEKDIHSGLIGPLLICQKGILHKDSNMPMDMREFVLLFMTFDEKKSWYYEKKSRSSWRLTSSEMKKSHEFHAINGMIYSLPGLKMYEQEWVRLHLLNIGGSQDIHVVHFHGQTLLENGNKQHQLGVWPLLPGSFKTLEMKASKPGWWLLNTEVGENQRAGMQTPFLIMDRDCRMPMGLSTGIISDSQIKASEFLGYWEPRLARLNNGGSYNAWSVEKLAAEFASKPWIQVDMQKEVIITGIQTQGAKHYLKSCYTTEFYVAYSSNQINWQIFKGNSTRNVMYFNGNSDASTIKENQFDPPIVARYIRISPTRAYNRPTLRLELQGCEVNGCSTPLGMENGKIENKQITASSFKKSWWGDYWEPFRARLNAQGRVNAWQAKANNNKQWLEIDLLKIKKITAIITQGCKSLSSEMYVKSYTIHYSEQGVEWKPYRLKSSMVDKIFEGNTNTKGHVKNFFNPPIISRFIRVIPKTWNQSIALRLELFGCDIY
factor Xa, sequence (P00742 235-488 limits assumed): as the sequence (P00742 235-488 limits assumed) above
factor Xa, sequence (P00742 41-179 limits assumed): as the sequence (P00742 41-179 limits assumed) above

SMILES | pIC50 [1, 4] | pIC50 [1, 5] | pIC50 [2, 6] | pIC50 [2, 7] | pIC50 [3]
CCOC(=O)c1nc2cc(OC3CCN(C(C)=N)CC3)ccc2n1Cc1cc2ccc(C(=N)N)cc2n1CC [Example 18] | 7.74 | 7.74 | 5.89 | 5.87 | 6.78
CCn1c(Cn2c(C(C)C)nc3cc(OC4CCN(C(C)=N)CC4)ccc32)cc2ccc(C(=N)N)cc21 [Example 7] | 8.92 | 8.92 | 6.09 | 6.09 | 8.01
CC(C)c1nc2cc(OC3CCN(C)CC3)ccc2n1Cc1cccc(-c2cccc(C(=N)N)c2)c1 [Example 8] | – | 7.49 | – | 4.54 | 6.43

Continued, values first:

pIC50 [1, 4] | pIC50 [1, 5] | pIC50 [2, 6] | pIC50 [2, 7] | pIC50 [3] | SMILES
– | 6.83 | – | 7.79 | 6.86 | CCn1c(Cn2c(C(C)C)nc3ccc(OC4CCN(C(C)=N)CC4)cc32)cc2ccc(C(=N)N)cc21 [Example 6]
– | 6.18 | – | 5.02 | 5.04 | CC(=N)N1CCC(Oc2ccc3nc(C(C)C)n(Cc4cccc(-c5cccc(C(=N)N)c5)c4)c3c2)CC1 [Example 9]
– | 7.98 | – | – | 7.77 | CC(=N)N1CCC(Oc2ccc3nc(C(C)C)n(Cc4ccc5ccc(C(=N)N)cc5c4)c3c2)CC1 [Example 11]
8.24 | 8.24 | 4.58 | 4.58 | 8.59 | CC(=N)N1CCC(Oc2ccc3c(c2)nc(C(C)C)n3Cc2cccc(-c3cccc(C(=N)N)c3)c2)CC1 [Example 10]
